Measured values reported in patent publication US8642759B2, “Benzene sulfonamide thiazole and oxazole compounds” (GlaxoSmithKline LLC, priority 2008, dated 2014).
Like-named read-outs stand apart in the source and are kept apart here.

How the values were obtained:
[1] = molecular target: T1, His6-tagged BRAFV600E full-length (amino acids 2-766) (Homo sapiens, UniProt P15056, V600E); assay: biochemical; assay type: biochemical
T1 construct: BRAFV600E full-length (amino acids 2-766); His6; made in house
Description: Compounds of the present invention were tested for B-Raf protein serine kinase inhibitory activity in a B-Raf Accelerated MEK ATPase assay (BRAMA). […] The BRAMA assay is a high sensitivity assay which measures an intrinsic MEK-mediated ATP hydrolysis uncoupled from downstream ERK phosphorylation by coupling the formation of ADP to NADH oxidation through the enzymes pyruvate kinase and lactate dehydrogenase. When ADP production is initiated by addition of catalytic amounts of an activated Raf enzyme and non-phosphorylated MEK, one observes robust ADP production concomitant with Raf-mediated phosphorylation of MEK. The method is disclosed in: C. Rominger, M. Schaber, E. May. Assay for B-Raf Activity Based on Intrinsic MEK ATPase Activity.

[2] = system: Human melanoma cancer cells (SK-MEL-28); assay: Cell growth inhibition assay (CellTiter-Glo), SK-MEL-28; assay type: cell-based; settings: SK-MEL-28, 72 h, 3 days incubation
[3] = system: Human colon tumor cells (Colo205); assay: Cell growth inhibition assay (CellTiter-Glo), Colo205; assay type: cell-based; settings: COLO 205, 72 h, 3 days incubation
Description: Human colon tumor cells (Colo205) were cultured in RPMI (Mediatech 50-020-PB) containing 10% FBS and 1% penicillin-streptomycin.
The next day, compounds were diluted as follow: For 96-well assays, 13.5 μL of compound in DMSO were diluted using nine (9) serial 1:3 dilutions of 4.5 μL in 9 μL of DMSO. Medium (270 μL/well of RPMI with 10% FBS and 1% penicillin-streptomycin) was added to the plates. Aliquots (7 μL) were added to cells in the final assay giving a final DMSO concentration of 0.2%. For 384-well assays, 15 μL of compound in DMSO were diluted using nine (9) serial 1:3 dilutions of 5 μL in 10 μL of DMSO, followed by a further dilution of 5 μL of compound with 95 μL of medium, of which 2 μL were added to cells in the final assay giving a final DMSO concentration of 0.2%. Cells were incubated at 37° C., 5% CO2 for 3 days.
Total ATP was measured (as a surrogate estimate of cell number) using CellTiter-Glo® reagent (Promega G7571). Briefly, plates were removed from the incubator and allowed to equilibrate to room temperature for 30 minutes. CellTiter-Glo® (25 μL or 55 μL for 384-well or 96-well assays, respectively) reagent was added to each well and plates were shaken on an orbital plate shaker for 2 minutes. Plates were incubated without shaking for a further 30 minutes and read on an LJL Analyst GT reader in luminometer mode with an integration time of 0.5 seconds per well. Percent inhibition of cell growth was calculated relative to DMSO vehicle-treated control wells.

[4] = system: cancer cell lines encoding B-Raf V600E mutation; assay: 3 day proliferation assay, panel of 22 cancer cell lines encoding B-Raf V600E; assay type: cell-based; settings: count of cell lines of the panel of 22
[5] = system: A375P F11s; assay: Dose dependent tumor inhibition, A375P F11s subcutaneous xenograft; assay type: in vivo, athymic mice; parameters: key: −: indicates no response; +: indicates growth delay (1-2× doubling); ++: indicates growth delay (>2× doubling); +++: indicates stable disease; ++++: indicates partial regression; +++++: indicates complete regression; settings: oral, 14-day period
Description: A375P F11s were cultured in RPMI 1640 medium supplemented with 10% fetal bovine serum, 1% Penicillin-streptomycin and 1% sodium pyruvate. Tumor cells (2×10^6 A375P F11s) were implanted subcutaneously into the right flank of athymic mice on Day 1. To facilitate their growth, A375P F11s cells were suspended in Matrigel diluted 1:1 in phosphate-buffered saline before implantation. When tumors had reached approximately 200 mm^3 in volume (Day 19-22), tumor-bearing mice were randomized into study groups (n=7 or 8). Animals were dosed orally once or twice daily for a 14-day period. […] Tumor growth was measured twice a week using calipers for the duration of the study. Tumor volumes were calculated as a product of (length×width×width)/2 and median values were used to compare groups. Complete regressions (CR) were defined as three consecutive tumor measurements of ≦13.5 mm^3. Partial regressions were defined as three consecutive measurements of ≦50% of starting tumor volume. Tumor growth delay was defined as the difference in time taken for treated and control groups to reach 1000 mm^3 (T-C1000).

[6] = Table 1a, highest pIC50 for the one or more runs, read-out: B-Raf Activity
[7] = Table 1b (later runs), average pIC50 for the one or more runs, read-out: B-Raf plC50
[8] = Table 3a, read-out: Activity in SK-MEL-28 Tumor Cells
[9] = Table 3b (later runs), average for the one or more runs, read-out: IC50 for SK-MEL-28
[10] = Table 2a, read-out: Activity in Colo205 Tumor Cells
[11] = Table 2b (later runs), average for the one or more runs, read-out: IC50 for Colo205
[12] = Table 1a, highest pIC50 for the one or more runs

T1 sequence (P15056 2-766 V600E): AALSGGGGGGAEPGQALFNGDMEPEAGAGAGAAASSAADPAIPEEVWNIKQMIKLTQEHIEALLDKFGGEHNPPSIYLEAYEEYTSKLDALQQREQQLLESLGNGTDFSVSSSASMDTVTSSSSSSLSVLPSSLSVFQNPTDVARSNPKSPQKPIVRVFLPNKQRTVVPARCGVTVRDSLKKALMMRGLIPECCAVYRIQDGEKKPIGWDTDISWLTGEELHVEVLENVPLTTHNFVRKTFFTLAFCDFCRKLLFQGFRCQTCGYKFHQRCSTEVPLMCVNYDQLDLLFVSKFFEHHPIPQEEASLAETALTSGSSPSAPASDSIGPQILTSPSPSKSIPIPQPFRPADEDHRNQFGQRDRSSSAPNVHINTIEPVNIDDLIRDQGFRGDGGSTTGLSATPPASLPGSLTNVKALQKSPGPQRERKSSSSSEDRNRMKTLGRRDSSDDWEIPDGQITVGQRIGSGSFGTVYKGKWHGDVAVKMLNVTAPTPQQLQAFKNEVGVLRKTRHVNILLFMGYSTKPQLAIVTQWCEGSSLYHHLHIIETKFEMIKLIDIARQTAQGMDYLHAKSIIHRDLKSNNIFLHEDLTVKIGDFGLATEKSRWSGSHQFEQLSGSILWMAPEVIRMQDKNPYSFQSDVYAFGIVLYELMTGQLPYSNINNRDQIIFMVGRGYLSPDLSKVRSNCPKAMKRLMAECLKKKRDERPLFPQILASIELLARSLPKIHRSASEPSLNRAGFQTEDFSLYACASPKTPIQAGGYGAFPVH

CC(C)c1nc(-c2cccc(NS(=O)(=O)c3cc(F)ccc3F)c2F)c(-c2ccnc(NCCCNS(C)(=O)=O)n2)s1 [Example 195]
IC50 [1, 6]: < 100 nM | IC50 [1, 7]: ≤ 3.16 nM | IC50 [2, 8]: < 100 nM | IC50 [2, 9]: < 100 nM | IC50 [3, 10]: < 100 nM | IC50 [3, 11]: < 100 nM

CC(C)c1nc(-c2cccc(NS(=O)(=O)c3cc(F)ccc3F)c2F)c(-c2ccnc(NCCCNC(=O)CO)n2)s1 [Example 196]
IC50 [1, 6]: < 100 nM | IC50 [1, 7]: ≤ 3.16 nM | IC50 [2, 8]: < 100 nM | IC50 [2, 9]: < 100 nM | IC50 [3, 10]: < 100 nM | IC50 [3, 11]: < 100 nM

CC(C)(C)c1nc(-c2cccc(NS(=O)(=O)c3c(F)cccc3F)c2F)c(-c2ccnc(N)n2)s1 [Example 58a, N-{3-[5-(2-Amino-4-pyrimidinyl)-2-(1,1-dimethylethyl)-1,3-thiazol-4-yl]-2-fluorophenyl}-2,6-difluorobenzenesulfonamide]
cancer cell lines encoding B-Raf V600E not sensitive (gIC50>1000M) [4]: 4 out of 22 | cancer cell lines encoding B-Raf V600E with intermediate response (gIC50≧100 nM and <1000 nM) [4]: 2 out of 22 | Response ([5]; 1 mg/kg qd): + | Response ([5]; 10 mg/kg qd): ++ (+) | Response ([5]; 100 mg/kg bid): ++++ (+) | Response ([5]; 100 mg/kg qd): ++++ (+) | Response ([5]; 300 mg/kg bid): ++++ (+) | Response ([5]; 300 mg/kg qd): ++++ (+)

COCCCNc1nccc(-c2sc(C(C)C)nc2-c2ccc(F)c(NS(=O)(=O)c3c(F)cccc3F)c2)n1 [Example 168]
B-Raf Activity [1, 12]: ++ (indicates at least one pIC50 measurement greater than 6 against B-Raf but no measurement greater than pIC50 of 7)

CC(C)c1nc(-c2ccc(F)c(NS(=O)(=O)c3c(F)cccc3F)c2)c(-c2ccnc(NCCCCN(C)C)n2)s1 [Example 167]
B-Raf Activity [1, 12]: ++ (indicates at least one pIC50 measurement greater than 6 against B-Raf but no measurement greater than pIC50 of 7)

CC(C)c1nc(-c2ccc(F)c(NS(=O)(=O)c3c(F)cccc3F)c2)c(-c2ccnc(NCCN3CCOCC3)n2)s1 [Example 165]
B-Raf Activity [1, 12]: ++ (indicates at least one pIC50 measurement greater than 6 against B-Raf but no measurement greater than pIC50 of 7)

CC(C)c1nc(-c2ccc(F)c(NS(=O)(=O)c3c(F)cccc3F)c2)c(-c2ccnc(NCCOCCO)n2)s1 [Example 166]
B-Raf Activity [1, 12]: ++ (indicates at least one pIC50 measurement greater than 6 against B-Raf but no measurement greater than pIC50 of 7)
